Patent US8197838B2, “Sustained release systems of ascorbic acid phosphate” (Advanced Technologies and Regenerative Medicine, LLC., priority 2008, dated 2012)
Where “and” joins values, the source holds several entries; their conditions need not be identical. Equal values may be shown once.

Key:
[1] = AZP drying condition evaluation (weight loss on heating); format: physicochemical; conditions: for Total Weight loss after 2nd Heat: cumulative; for Weight loss after 1st Heat: Trisodium Salt
Description: The following drying conditions for 2-Phospha-L-ascorbic Acid Trisodium Salt (AZP), (>98% (HPLC), Fluka, Lot#: 1322473 52607420) were tested: 90° C./24 hrs. under vacuum, 160° C./30 minutes under dry nitrogen blanket, and 200° C./30 minutes under dry nitrogen blanket. The times tested include estimating the compounding time and time for sample collection and cooling.
6 glass vials were pre-dried in a vacuum oven at 160° C. for 30 minutes and transferred to a glove box purged with dry nitrogen gas. AZP powder was weighed in each vial (see Table 1) in the glove box.
(§1) The dried AZP powder vials were sealed with Parafilm and stored under dry a nitrogen blanket until evaluation. The weight loss % was cumulative over both heating conditions. The samples under RT/N2 were stored in nitrogen box. The samples were evaluated for color change of the course of the heating conditions. Color change is an indicator of AZP degradation. […] The higher temperature and shorter time could have the same drying effects on the weight loss. […] Therefore 160° C. and 30 minutes were selected as the upper limits of the drying and processing condition

[2] = Color change as indicator of AZP degradation; format: physicochemical
Description: as §1
Films were prepared as follow: The platens of a compression molding instrument (Carver Laboratory Press, Model: 2696) were pre-heated to 205° C. About 3.5 grams of the composition were placed on the platens and heated for 5 minutes. Pressure was applied (about 20,000 lbs) for about 2 minutes. The heating was stopped and the platens and film were allowed to cool to RT under water cooling and continued pressure.

[3] = stated by material safety data sheet from an AZP manufacturer; cited from earlier work

## 2-Phospha-L-ascorbic Acid Trisodium Salt [AZP]
[1]; 1st 90° C./Vac 24 hours, 2nd 160° C./N2/air 30 min
  Total Weight loss after 2nd Heat: 6.25 wt %
[1]; 1st 90° C./Vac 24 hours, 2nd 200° C./N2/air 30 min
  Total Weight loss after 2nd Heat: 6.75 wt %
[1]; 1st 90° C./Vac 24 hours, 2nd RT/N2 30 min
  Total Weight loss after 2nd Heat: 4.41 wt %
[1]; 1st RT/N2 24 hours, 2nd 160° C./N2/air 30 min
  Total Weight loss after 2nd Heat: 10.06 wt %
[1]; 1st RT/N2 24 hours, 2nd 200° C./N2/air 30 min
  Total Weight loss after 2nd Heat: 8.10 wt %
[1]; 1st RT/N2 24 hours, 2nd RT/N2 30 min (control)
  Total Weight loss after 2nd Heat: 0.25 wt %
[1]; 1st heat for 24 hours 90° C./Vac
  Weight loss after 1st Heat: 8.09 wt % and 7.59 wt % and 6.43 wt %
[1]; 1st heat for 24 hours RT/N2
  Weight loss after 1st Heat: 1.18 wt % and 1.76 wt % and 1.00 wt %
[1]; as received
  Moisture content of AZP as received: up to 7.5 % by weight
[2]; sample number 6, 90° C./Vac 24 hrs then heated to 200° C.
  Color change of AZP powder (indicator of degradation): darkest yellow color
[2]; samples heated at 90° C./24 hrs.
  Color change of AZP powder (indicator of degradation): very slight yellow color
[2]; samples heated for no more than 30 minutes
  Color change of AZP powder (indicator of degradation): retained the original white color
[2]; samples that underwent 2 heat treatments
  Color change of AZP powder (indicator of degradation): slightly yellow color
[3]
  Degradation temperature of AZP: about 260 °C
